Experimental findings from patent publication US20220227722A1, “SPHINGOSINE 1 PHOSPHATE RECEPTOR MODULATOR” (RECEPTOS LLC, priority 2019, published 2022) are described below.

Where two headings read alike, the source gives them in different places.

The target of data set [1] is T1, S1P3R (Homo sapiens, UniProt Q99500).
T1 construct: expressed in transfected cells; membranes
The data set can be described thus: [35S]GTPγS binding to membranes, S1P3R. In kind it is biochemical. As to the method: (§1) S1P1R is a GPCR that couples exclusively to the inhibitory G protein (Gαi), decreasing adenylate cyclase activity and lowering cyclic adenosine monophosphate (cAMP levels) in the cell. The potency of Compound 1 was tested against the S1P1 receptor (S1P1R) and related family members. The potency and S1P receptor selectivity were measured using two independent in vitro assays, [^35S]guanosine-5′-O-(3-thio)triphosphate ([^35S]GTPγS) and β-lactamase gene expression and activity. The GTPγS binding to membranes prepared from stable mammalian cells lines expressing recombinant human S1P receptors 1-5 (S1P1R-S1P5R) was used to pharmacologically characterize ligand interaction with the S1P receptor family members. […] Membrane-bead complexes were then pelleted by centrifugation before the bound radioactivity was quantified with a MicroBeta2® microplate scintillation counter. The radioactive counts relative to DMSO vehicle were calculated and the half maximal effective concentration (EC50) was determined using non-linear regression.
On the technique in general: Binding of GTPγS marks nucleotide exchange on a G protein.

The target of data set [2] is T1, S1P3R. The data set can be described thus: β-lactamase gene expression and activity whole-cell assay, S1P3R. Type of data set: cell-based. To be noted: stable cells expressing recombinant human S1P3R. As to the method:
(§2) Up-regulation of β-lactamase gene expression and activity were used as a whole-cell functional readout of S1P receptor activation. […] The respective β-lactamase activity was then determined using a fluorescence resonance energy transfer (FRET)-based β-lactamase fluorescent substrate (LiveBLAzer™-FRET B/G Loading Kit CCF4-AM) according to manufacturer's instructions, and incubated with cells for 2 hours at RT. Plates were read using a SpectraMax M5 Multi-Mode microplate reader and the relative response to DMSO vehicle calculated for the EC50 determination using non-linear regression.

Data set [3] concerns the target T2, S1P1R (Homo sapiens, UniProt P21453).
T2 construct: expressed in transfected cells; membranes
Briefly: β-lactamase gene expression and activity whole-cell assay, S1P1R. In kind it is cell-based. To be noted: stable cells expressing recombinant human S1P1R. As to the method: as §2

Data set [4] in a line: Compound 1 single dose pharmacokinetics in the rat. To be noted: Sprague-Dawley, plasma; for AUC(0-t): read-out: AUC0-24; for half-life: read-out: t½ (converted). In kind it is in vivo. As to the method: Plasma samples (50 μL) were aliquoted into a 96 deep-well polypropylene plate (2 mL/well) and 5 μL of dimethyl sulfoxide (DMSO) was added. Samples expected to be above the upper limit of quantitation (ULOQ) were diluted with plasma. Standard curves were prepared by mixing 5 μL of the test compound in DMSO at 10 times the concentration which was added to 50 μL of plasma in a 96 deep-well polypropylene plate. For example, for a 0.3 μM standard, the 10×DMSO concentration of the test compound was 3 μM. Standard curves were prepared using analytical standards of Compound 1. Protein was precipitated from study samples and standards by the addition of 150 μL of acetonitrile. The plate was vortexed to ensure complete precipitation of protein. The precipitated protein was pelleted by centrifugation at 4,000 rpm for 10 min at 20° C. and the clear supernatant was transferred to a clean 96-well plate and centrifuged again under the same conditions to pellet any transferred solid material.
Samples (7 μL) were introduced to a Shimadzu HPLC (LC-20ADXR) with a SIL-30ACMP autosampler (Shimadzu). The mobile phase was a gradient using 0.1% formic acid in water and 0.1% formic acid in acetonitrile. The column used was a Phenomenex Kinetic C18 100 A 2.6μ30×3 mm (PN 946975-906). The CTO-20AC column oven (Shimadzu) was set at 40° C. Prepared samples were usually analyzed in order of lowest to highest concentration for standards and reverse order of time-points for study samples. Study samples were bracketed by full standard curves. Typically at least 6 standards were used for quantitation with a percent accuracy of +/−15% for all standards except at the lower level of quantitation (LLOQ) where a percent accuracy of +/−20% was allowed.
An ABSciex Instruments Triple Quad 5500 Mass Spectrometer (Analyst 1.6.3) was used for detection in the MRM mode. Ionization was achieved by positive or negative electrospray with a source temperature of 600° C. Negative and positive mode analysis was performed in the same injection. Standard samples were usually analyzed in order of lowest to highest concentration. Typically at least six standards were used for quantification with a percent accuracy of +/−15% for all standards except at the LLOQ where a percent accuracy of +/−20% was allowable. Study samples were analyzed in reverse chronological order bracketed with bracketing standard curves.
Blood concentration versus time data are analyzed using non-compartmental methods (WinNonlin version 5.2; model 200 for oral dosing and model 202 for intravenous infusion). Absolute oral bioavailability (%) is calculated using the following expression: (Oral AUC×IV Dose)/(IV AUC×Oral Dose)×100.
Compound 1 was administered in a formulation of 10% volume/volume (v/v) DMSO and 5% v/v Tween 20 in water by IV administration (10 mL/kg) or 0.5% weight/volume (w/v) CMC in water by oral gavage (10 mL/kg). Animals received 0.2 mg/kg as the IV dose or 2 mg/kg/day orally as a single administration. Blood samples were collected at 1, 5, and 30 minutes, 2, 4, 8, 10, 24, […], 48, and 72 hours after IV dosing and 1, 2, 3, 4, 6, 8, 10, 12, 24, 48, and 72 hours following oral dosing. Blood was collected into tubes containing the anti-coagulant K2EDTA and processed to plasma. Plasma concentrations for each analyte were determined using a qualified LC-MS/MS method.

Data set [5] deals with T3, S1P2R (Homo sapiens, UniProt O95136).
T3 construct: expressed in transfected cells; membranes
T3 sequence (O95136 whole entry): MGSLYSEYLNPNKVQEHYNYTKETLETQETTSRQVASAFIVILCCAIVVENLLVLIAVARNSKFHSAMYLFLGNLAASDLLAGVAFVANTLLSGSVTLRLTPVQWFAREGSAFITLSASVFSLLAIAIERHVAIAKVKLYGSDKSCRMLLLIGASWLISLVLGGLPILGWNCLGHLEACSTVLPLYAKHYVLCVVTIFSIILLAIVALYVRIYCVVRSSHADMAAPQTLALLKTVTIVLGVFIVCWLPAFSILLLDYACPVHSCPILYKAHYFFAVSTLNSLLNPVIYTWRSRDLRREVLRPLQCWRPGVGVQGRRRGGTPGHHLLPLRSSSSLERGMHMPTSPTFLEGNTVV
Briefly: [35S]GTPγS binding to membranes, S1P2R. In kind it is biochemical. As to the method:
as §1

The target of data set [6] is T2, S1P1R. The data set can be described thus: [35S]GTPγS binding to membranes, S1P1R. Type of data set: biochemical. As to the method: as §1
Data set [7] deals with T4, S1P4R (Homo sapiens, UniProt O95977).
T4 construct: expressed in transfected cells; membranes
T4 sequence (O95977 1-384): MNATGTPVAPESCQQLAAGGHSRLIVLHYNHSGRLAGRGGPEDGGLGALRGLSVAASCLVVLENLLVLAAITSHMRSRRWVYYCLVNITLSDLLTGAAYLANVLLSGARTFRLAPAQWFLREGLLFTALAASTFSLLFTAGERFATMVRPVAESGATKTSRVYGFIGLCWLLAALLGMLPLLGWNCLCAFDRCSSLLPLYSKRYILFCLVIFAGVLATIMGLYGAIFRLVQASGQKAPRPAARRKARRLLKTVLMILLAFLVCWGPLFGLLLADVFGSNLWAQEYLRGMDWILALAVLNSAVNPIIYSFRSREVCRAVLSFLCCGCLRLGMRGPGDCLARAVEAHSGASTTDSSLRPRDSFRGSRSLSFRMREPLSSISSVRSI
The data set can be described thus: β-lactamase gene expression and activity whole-cell assay, S1P4R. In kind it is cell-based. To be noted: stable cells expressing recombinant human S1P4R. As to the method: as §2

Data set [8] in a line: Clinical PK, Phase 1 study of ozanimod HCl in relapsing remitting multiple sclerosis subjects. In kind it is in vivo, human. Particulars: for Tmax: read-out: Median Tmax; for % of total agonist exposure at steady state: total agonist = sum of ozanimod and active metabolites, ozanimod HCl PO QD. From the text: Serial blood PK samples were collected on Days 1 and the last day of dosing.

In data set [9] the target is T5, S1P5R (Homo sapiens, UniProt Q9H228).
T5 construct: expressed in transfected cells; membranes
T5 sequence (Q9H228 whole entry): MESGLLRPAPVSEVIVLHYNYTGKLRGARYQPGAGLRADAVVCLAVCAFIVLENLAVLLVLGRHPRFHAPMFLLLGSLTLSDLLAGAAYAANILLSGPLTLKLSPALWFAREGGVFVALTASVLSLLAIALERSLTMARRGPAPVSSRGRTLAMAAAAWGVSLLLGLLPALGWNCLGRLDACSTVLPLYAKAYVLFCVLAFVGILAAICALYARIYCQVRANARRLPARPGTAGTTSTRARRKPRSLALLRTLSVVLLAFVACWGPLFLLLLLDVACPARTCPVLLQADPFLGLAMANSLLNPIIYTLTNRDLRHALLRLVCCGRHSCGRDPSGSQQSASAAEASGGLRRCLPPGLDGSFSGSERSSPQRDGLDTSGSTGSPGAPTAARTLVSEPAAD
The data set can be described thus: [35S]GTPγS binding to membranes, S1P5R. Type of data set: biochemical. The protocol: as §1

Data set [10] deals with circulating lymphocytes. Briefly: Assessment of circulating lymphocyte counts after single oral dose. To be noted: rat, 2 mg/kg oral single dose. Type of data set: in vivo, Sprague Dawley rats. As to the method:
Whole blood samples were collected from acclimated, conscious male Sprague Dawley rats in the fed state using percutaneous jugular vein puncture at pre-dose and 3, 6 and 24 hours after single oral dose administration of vehicle or test compound. Blood samples were collected into K2EDTA tubes, thoroughly mixed and stored on wet ice until analyzed. Circulating lymphocyte counts were assessed by two methods from individual aliquots of the same samples. Total lymphocyte counts were determined in a standard hematology panel on a calibrated analyzer (Test #416; Horiba Medical ABX Pentra XL 80) and by in-house flow cytometry using fluorescent-activated cell sorting (FACS) analysis to determine the number of CD4+, CD8+ and B220+ lymphocytes (ThermoFisher Attune NxT flow cytometer). Data are expressed as follows for absolute lymphocyte counts (hematology analyzer), the individual lymphocyte subtypes (CD4+, CD8+ and B220+) and the sum of the individual lymphocyte subtypes (flow cytometry). • Number of lymphocytes per μL whole blood. • Percentage change relative to each group's pre-dose baseline at each time point
Whole blood samples (K2EDTA) were analyzed on the flow cytometer (ThermoFisher Attune NxT) using rat antibodies, as detailed below. The baseline and 3 hour post-dose samples were analyzed on the same day as collection. The 6 hour post-dose samples were analyzed after overnight storage at 4° C. (on wet ice in a 2-8° C. fridge) and on the same day as the 24 hour post-dose samples were collected and analyzed.
The oral dose level of 2 mg/kg of Compound 1 administered to the animals was intended to induce a significant reduction (˜≥60%) in the number of circulating lymphocyte. Following acclimation, blood samples were serially collected from the jugular vein of conscious Sprague Dawley rats prior to dosing and 3 hours, 6 and 24 hours after administration. The absolute number of circulating lymphocytes was quantified in whole blood samples using a hematology analyzer and the CD4^+, CD8^+ and B220^+ lymphocyte subtypes by flow cytometry. The plasma concentrations for each compound were quantified with liquid chromatography, tandem mass spectrometry.

In data set [11] the target is T4, S1P4R. The data set can be described thus: [35S]GTPγS binding to membranes, S1P4R. Type of data set: biochemical. As to the method: as §1
Data set [12] deals with T5, S1P5R. Briefly: β-lactamase gene expression and activity whole-cell assay, S1P5R. Type of data set: cell-based. The protocol:
as §2

[13] abbreviates: Table 4 comparative selectivity, agonist values, read-out: EC50 S1P3.
[14] abbreviates: Table 4 comparative selectivity, agonist values, read-out: EC50 S1P2.
The mark [15] stands for this setting: Table 4 comparative selectivity, agonist values, read-out: EC50 S1P4.

T1 sequence (Q99500 whole entry): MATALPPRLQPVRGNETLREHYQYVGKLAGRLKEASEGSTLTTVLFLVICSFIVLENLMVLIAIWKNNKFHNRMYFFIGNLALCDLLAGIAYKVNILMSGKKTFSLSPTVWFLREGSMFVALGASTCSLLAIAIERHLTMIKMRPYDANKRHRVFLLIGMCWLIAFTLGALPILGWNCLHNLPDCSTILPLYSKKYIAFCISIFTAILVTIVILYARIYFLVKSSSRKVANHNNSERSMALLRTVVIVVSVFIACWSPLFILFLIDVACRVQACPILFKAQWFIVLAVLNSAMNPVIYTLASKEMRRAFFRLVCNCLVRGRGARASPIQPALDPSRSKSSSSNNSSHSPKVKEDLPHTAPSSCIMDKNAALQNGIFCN
T2 sequence (P21453 whole entry): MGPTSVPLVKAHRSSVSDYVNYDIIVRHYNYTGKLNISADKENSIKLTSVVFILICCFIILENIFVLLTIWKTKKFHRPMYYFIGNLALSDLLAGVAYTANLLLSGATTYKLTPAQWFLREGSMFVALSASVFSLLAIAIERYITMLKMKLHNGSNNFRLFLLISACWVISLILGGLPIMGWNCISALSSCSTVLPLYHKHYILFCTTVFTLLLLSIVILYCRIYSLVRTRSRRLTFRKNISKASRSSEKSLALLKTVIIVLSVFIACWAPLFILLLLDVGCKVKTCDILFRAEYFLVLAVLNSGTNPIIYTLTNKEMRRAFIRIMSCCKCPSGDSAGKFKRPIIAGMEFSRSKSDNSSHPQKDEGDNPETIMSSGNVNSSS

For `CC(C)Oc1ccc(-c2nc(-c3cccc4c3CCC4=O)no2)cc1C#N` [Compound 1, 2-isopropoxy-5-(3-(1-oxo-2,3-dihydro-1H-inden-4-yl)-1,2,4-oxadiazol-5-yl)benzonitrile], the EC50 (commonly the concentration giving half of the maximal effect) in data set [1] (setting [13]) is > 5 µM; in data set [1] (recombinant human S1P3R membranes, read-out: EC50 S1P3R GTPγS) it was > 5 µM; in [2], > 10 µM; in data set [3], 40 pM; in data set [5] (setting [14]), > 10 µM; in [5] (recombinant human S1P2R membranes, read-out: EC50 S1P2R GTPγS), > 10 µM. For the same compound, the EC50 in data set [6] (recombinant human S1P1R membranes) is 0.0021 µM; in data set [7] it was > 10 µM; in data set [9] (recombinant human S1P5R membranes, read-out: EC50 S1P5R GTPγS), 0.0179 µM; in [11] (setting [15]), > 10 µM; in data set [11] (recombinant human S1P4R membranes, read-out: EC50 S1P4R GTPγS), > 10 µM; in data set [12] (stable cells expressing recombinant human S1P5R) it was 0.0069 µM. Also, the highest concentration (Cmax) – broadly, the maximum level reached in the sampled fluid or tissue – in [4] (0.2 mg/kg IV, single dose) is 743 nM; in data set [4] (2.0 mg/kg oral, single dose) it was 14.8 nM. Besides, the time to peak (Tmax) (as a rule, the time at which the peak concentration occurs) is 0.02 h in data set [4] (0.2 mg/kg IV, single dose); 3 h in [4] (2.0 mg/kg oral, single dose); 6 to 10 h in data set [8] (human, blood, po). Besides, the AUC(0-t) in data set [4] (0.2 mg/kg IV, single dose) was determined as 0.386 µM·h; in data set [4] (2.0 mg/kg oral, single dose) it was 0.0954 µM·h. The half-life is 1.62 h in data set [4] (0.2 mg/kg IV, single dose) and 3.73 h in data set [4] (2.0 mg/kg oral, single dose). For the same compound, the Vd/F (commonly the apparent distribution volume after extravascular dosing) in [4] (2.0 mg/kg oral, single dose) was 292 L/kg. Moreover, the bioavailability – broadly, the share of a dose that reaches the circulation, judged against a reference dose that is usually intravenous – in data set [4] (2.0 mg/kg oral vs 0.2 mg/kg IV) came to 2.5%. Moreover, the “selectivity for S1P1R over S1P2R, S1P3R and S1P4R” value in data set [6] ([35S]GTPγS binding activity readout) is on record as “greater than 1000 fold”. For the same compound, the “Peak-to-trough ratio (at steady state)” value in data set [8] (RMS subjects, ozanimod HCl 0.5 or 1 mg PO QD, steady state) is listed as 1.3- to 1.6-fold. In [8], the “% of total agonist exposure at steady state” value was 85% to 93%. In addition, the “selectivity for S1P5R over S1P2R, S1P3R and S1P4R” value in data set [9] (GTPγS readout) and in data set [12] (β-lactamase readout) was “greater than 200 fold” throughout. In addition, the “time of maximum effect on lymphocyte counts” value in data set [10] was “by six hours after administration”. The “effect on lymphocyte counts at the 24 hour time-point” value in data set [10] (24 hours) is recorded as “without significant effect”. Moreover, the “reduction of B220+ lymphocyte population relative to pre-dose” value in data set [10] (flow cytometry) stood at 35%. Further, the “reduction of CD4+ lymphocyte population relative to pre-dose” value in data set [10] (flow cytometry) was determined as 68%. Further, the “reduction of CD8+ lymphocyte population relative to pre-dose” value in data set [10] (flow cytometry) stood at 62%. The “reduction of total circulating lymphocyte counts (total number of CD4+, CD8+ and B220+) relative to pre-dose” value in [10] (flow cytometry) stood at 52%. Also, the “fewer lymphocytes relative to pre-dose values” in data set [10] (hematology analyzer) is 44%.

With `CC(C)Oc1ccc(-c2nc(-c3cccc4c3CC[C@@H]4NCCO)no2)cc1C#N` [Ozanimod, reference compound], the EC50 in data set [1] (setting [13]) was > 5 µM; in data set [5] (setting [14]) it was > 10 µM; in data set [9] (Table 4 comparative selectivity, agonist values, read-out: EC50 S1P5), 0.0051 µM; in [11] (setting [15]), 2.04 µM. Moreover, the half-life in data set [8] (human, blood, po, 1 mg, read-out: Mean t1/2 (at steady state)) lay within 15 to 23 h. Also, the Tmax in data set [8] (human, blood, po) was in the range of 6 to 8 h. The “% of total agonist exposure at steady state” value in data set [8] is given as “Ozanimod: 3% to 6%”.
